Laboratory results as given in PubChem BioAssay AID1963850 (Molecular Pharmacology Branch, DTP, NCI, 2024).

Tested on: 192522-019-R-J2-PDC complex tumor spheroid viability
Test: Anticancer human tumor 192522-019-R-J2-PDC patient-derived colon adenocarcinoma cell line growth inhibition [POLQ]
Conditions: for IC50: curve of first compound; for viability, T/C: stronger effect = lower value
Procedure, shortened: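 Complex spheroid viability model combining PDC tumour cells with endothelial (HUVEC) and MSC stromal cells. Novobiocin, ART-558 or RP6685 were tested singly and in combination with standard and investigational anticancer drugs. Each was titrated in half-log steps from near clinical Cmax, or from 10 microM where Cmax was unknown.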

[1] = second compound 0.0316 µM, first compound 0.0316 µM
[2] = second compound 0.0316 µM, first compound 0.1 µM
[3] = second compound 0.0316 µM, first compound 0.316 µM
[4] = second compound 0.0316 µM, first compound 1 µM
[5] = second compound 0.0316 µM, first compound 3.16 µM
[6] = second compound 0.0316 µM, first compound 10 µM
[7] = second compound 0.1 µM, first compound 0.0316 µM
[8] = second compound 0.1 µM, first compound 0.1 µM
[9] = second compound 0.1 µM, first compound 0.316 µM
[10] = second compound 0.1 µM, first compound 1 µM
[11] = second compound 0.1 µM, first compound 3.16 µM
[12] = second compound 0.1 µM, first compound 10 µM
[13] = second compound 0.316 µM, first compound 0.0316 µM
[14] = second compound 0.316 µM, first compound 0.1 µM
[15] = second compound 0.316 µM, first compound 0.316 µM
[16] = second compound 0.316 µM, first compound 1 µM
[17] = second compound 0.316 µM, first compound 3.16 µM
[18] = second compound 0.316 µM, first compound 10 µM
[19] = second compound 1 µM, first compound 0.0316 µM
[20] = second compound 1 µM, first compound 0.1 µM
[21] = second compound 1 µM, first compound 0.316 µM
[22] = second compound 1 µM, first compound 1 µM
[23] = second compound 1 µM, first compound 3.16 µM
[24] = second compound 1 µM, first compound 10 µM
[25] = second compound 3.16 µM, first compound 0.0316 µM
[26] = second compound 3.16 µM, first compound 0.1 µM
[27] = second compound 3.16 µM, first compound 0.316 µM
[28] = second compound 3.16 µM, first compound 1 µM
[29] = second compound 3.16 µM, first compound 3.16 µM
[30] = second compound 3.16 µM, first compound 10 µM
[31] = second compound 10 µM, first compound 0.0316 µM
[32] = second compound 10 µM, first compound 0.1 µM
[33] = second compound 10 µM, first compound 0.316 µM
[34] = second compound 10 µM, first compound 1 µM
[35] = second compound 10 µM, first compound 3.16 µM
[36] = second compound 10 µM, first compound 10 µM
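Also: spheroids exposed to drugs for seven days before reading.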
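For viability, T/C in this document: 100% = DMSO vehicle control viability in luminescence.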

`CC(=O)O[C@H]1C(=O)[C@@]2(C)[C@H]([C@H](OC(=O)c3ccccc3)[C@]3(O)C[C@H](OC(=O)[C@H](O)[C@@H](NC(=O)c4ccccc4)c4ccccc4)C(C)=C1C3(C)C)[C@]1(OC(C)=O)CO[C@@H]1C[C@@H]2O` + Cc1cccc(N(C)C(=O)C2C(O)CCN2c2nc(C)cc(C(F)(F)F)c2C#N)c1 was tested, and the IC50 (second compound 0.0316 µM) was over 3 µM, the IC50 (second compound 0.1 µM) was over 3 µM and the IC50 (second compound 0.316 µM) was over 3 µM. It also gave an IC50 (second compound 1 µM) of over 3 µM, an IC50 (second compound 3.16 µM) of over 3 µM and an IC50 (second compound 10 µM) of over 3 µM. The viability, T/C (second compound 0.0316 µM, first compound 0.00949 µM) was 90%, the viability, T/C (second compound 0.0316 µM, first compound 0.03 µM) was 69.4% and the viability, T/C (second compound 0.0316 µM, first compound 0.0949 µM) was 52.2%. For the same compound, the viability, T/C (second compound 0.0316 µM, first compound 0.3 µM) was 59%, the viability, T/C (second compound 0.0316 µM, first compound 0.949 µM) was 56.8% and the viability, T/C (second compound 0.0316 µM, first compound 3 µM) was 54.7%. The viability, T/C (second compound 0.1 µM, first compound 0.00949 µM) was 98.5%, the viability, T/C (second compound 0.1 µM, first compound 0.03 µM) was 74.3% and the viability, T/C (second compound 0.1 µM, first compound 0.0949 µM) was 53.1%. It also gave a viability, T/C (second compound 0.1 µM, first compound 0.3 µM) of 64.4%, a viability, T/C (second compound 0.1 µM, first compound 0.949 µM) of 60.4% and a viability, T/C (second compound 0.1 µM, first compound 3 µM) of 57.9%. The viability, T/C (second compound 0.316 µM, first compound 0.00949 µM) was 92.1%, the viability, T/C (second compound 0.316 µM, first compound 0.03 µM) was 79.5% and the viability, T/C (second compound 0.316 µM, first compound 0.0949 µM) was 61.8%. The viability, T/C (second compound 0.316 µM, first compound 0.3 µM) was 58.4%, the viability, T/C (second compound 0.316 µM, first compound 0.949 µM) was 64.3% and the viability, T/C (second compound 0.316 µM, first compound 3 µM) was 62.4%. It also gave a viability, T/C (second compound 1 µM, first compound 0.00949 µM) of 102%, a viability, T/C (second compound 1 µM, first compound 0.03 µM) of 84% and a viability, T/C (second compound 1 µM, first compound 0.0949 µM) of 61.1%. It also gave a viability, T/C (second compound 1 µM, first compound 0.3 µM) of 60.3%, a viability, T/C (second compound 1 µM, first compound 0.949 µM) of 54.3% and a viability, T/C (second compound 1 µM, first compound 3 µM) of 55.5%. For the same compound, the viability, T/C (second compound 3.16 µM, first compound 0.00949 µM) was 105%, the viability, T/C (second compound 3.16 µM, first compound 0.03 µM) was 79.8% and the viability, T/C (second compound 3.16 µM, first compound 0.0949 µM) was 61.8%. For the same compound, the viability, T/C (second compound 3.16 µM, first compound 0.3 µM) was 59.5%, the viability, T/C (second compound 3.16 µM, first compound 0.949 µM) was 65.8% and the viability, T/C (second compound 3.16 µM, first compound 3 µM) was 57.4%. For the same compound, the viability, T/C (second compound 10 µM, first compound 0.00949 µM) was 94%, the viability, T/C (second compound 10 µM, first compound 0.03 µM) was 67.8% and the viability, T/C (second compound 10 µM, first compound 0.0949 µM) was 58.3%. For the same compound, the viability, T/C (second compound 10 µM, first compound 0.3 µM) was 58.9%, the viability, T/C (second compound 10 µM, first compound 0.949 µM) was 56.8% and the viability, T/C (second compound 10 µM, first compound 3 µM) was 63.3%.
Work on `COc1cc(C2c3cc4c(cc3C(OC3OC5COC(C)OC5C(O)C3O)C3COC(=O)C23)OCO4)cc(OC)c1O` (stereo not drawn) + Cc1cccc(N(C)C(=O)C2C(O)CCN2c2nc(C)cc(C(F)(F)F)c2C#N)c1 yielded an IC50 (second compound 0.0316 µM) of over 10 µM, an IC50 (second compound 0.1 µM) of over 10 µM and an IC50 (second compound 0.316 µM) of over 10 µM. For the same compound, the IC50 (second compound 1 µM) was over 10 µM, the IC50 (second compound 3.16 µM) was over 10 µM and the IC50 (second compound 10 µM) was over 10 µM. For the same compound, the viability, T/C [1] was 96.8%, the viability, T/C [2] was 91.4% and the viability, T/C [3] was 103%. For the same compound, the viability, T/C [4] was 86.1%, the viability, T/C [5] was 64.7% and the viability, T/C [6] was 68.5%. It also gave a viability, T/C [7] of 103%, a viability, T/C [8] of 98.8% and a viability, T/C [9] of 97.1%. For the same compound, the viability, T/C [10] was 90.1%, the viability, T/C [11] was 58.6% and the viability, T/C [12] was 72.1%. For the same compound, the viability, T/C [13] was 107%, the viability, T/C [14] was 108% and the viability, T/C [15] was 96.4%. It also gave a viability, T/C [16] of 93.3%, a viability, T/C [17] of 65.8% and a viability, T/C [18] of 68.3%. It also gave a viability, T/C [19] of 108%, a viability, T/C [20] of 97.6% and a viability, T/C [21] of 98.9%. It also gave a viability, T/C [22] of 95.7%, a viability, T/C [23] of 70.5% and a viability, T/C [24] of 69.3%. The viability, T/C [25] was 113%, the viability, T/C [26] was 105% and the viability, T/C [27] was 102%. For the same compound, the viability, T/C [28] was 88.5%, the viability, T/C [29] was 79.9% and the viability, T/C [30] was 63.1%. The viability, T/C [31] was 117%, the viability, T/C [32] was 104% and the viability, T/C [33] was 105%. For the same compound, the viability, T/C [34] was 91.6%, the viability, T/C [35] was 80% and the viability, T/C [36] was 65.2%.
Compound `COc1cccc2c1C(=O)c1c(O)c3c(c(O)c1C2=O)CC(O)(C(=O)CO)CC3OC1CC(N)C(O)C(C)O1` (stereo not drawn) + Cc1cccc(N(C)C(=O)C2C(O)CCN2c2nc(C)cc(C(F)(F)F)c2C#N)c1 has an IC50 (second compound 0.0316 µM) of over 10 µM, an IC50 (second compound 0.1 µM) of over 10 µM and an IC50 (second compound 0.316 µM) of over 10 µM. The IC50 (second compound 1 µM) was over 10 µM, the IC50 (second compound 3.16 µM) was over 10 µM and the IC50 (second compound 10 µM) was over 10 µM. For the same compound, the viability, T/C [1] was 99.3%, the viability, T/C [2] was 79.8% and the viability, T/C [3] was 73.9%. For the same compound, the viability, T/C [4] was 86.3%, the viability, T/C [5] was 69.6% and the viability, T/C [6] was 57.2%. It also gave a viability, T/C [7] of 94%, a viability, T/C [8] of 85.6% and a viability, T/C [9] of 72.5%. The viability, T/C [10] was 83.8%, the viability, T/C [11] was 69.1% and the viability, T/C [12] was 67.7%. It also gave a viability, T/C [13] of 98.3%, a viability, T/C [14] of 91.1% and a viability, T/C [15] of 69.4%. The viability, T/C [16] was 77%, the viability, T/C [17] was 65.2% and the viability, T/C [18] was 63.3%. It also gave a viability, T/C [19] of 110%, a viability, T/C [20] of 92% and a viability, T/C [21] of 76.5%. For the same compound, the viability, T/C [22] was 83.7%, the viability, T/C [23] was 75.5% and the viability, T/C [24] was 61.1%. The viability, T/C [25] was 96.5%, the viability, T/C [26] was 99.9% and the viability, T/C [27] was 74.2%. It also gave a viability, T/C [28] of 69.7%, a viability, T/C [29] of 70.9% and a viability, T/C [30] of 60.3%. It also gave a viability, T/C [31] of 102%, a viability, T/C [32] of 79.1% and a viability, T/C [33] of 69.9%. The viability, T/C [34] was 62.7%, the viability, T/C [35] was 67.3% and the viability, T/C [36] was 49.8%.
In the case of `O=c1[nH]cc(F)c(=O)[nH]1` + Cc1cccc(N(C)C(=O)C2C(O)CCN2c2nc(C)cc(C(F)(F)F)c2C#N)c1, the IC50 (second compound 0.0316 µM) is reported as over 10 µM, the IC50 (second compound 0.1 µM) is reported as over 10 µM and the IC50 (second compound 0.316 µM) is reported as over 10 µM. It also gave an IC50 (second compound 1 µM) of over 10 µM, an IC50 (second compound 3.16 µM) of over 10 µM and an IC50 (second compound 10 µM) of over 10 µM. For the same compound, the viability, T/C [1] was 111%, the viability, T/C [2] was 88.5% and the viability, T/C [3] was 76.8%. For the same compound, the viability, T/C [4] was 87.2%, the viability, T/C [5] was 91.3% and the viability, T/C [6] was 72.4%. The viability, T/C [7] was 103%, the viability, T/C [8] was 92.8% and the viability, T/C [9] was 84.6%. The viability, T/C [10] was 81.7%, the viability, T/C [11] was 81% and the viability, T/C [12] was 85.3%. The viability, T/C [13] was 95.5%, the viability, T/C [14] was 95.9% and the viability, T/C [15] was 85%. For the same compound, the viability, T/C [16] was 80.7%, the viability, T/C [17] was 78% and the viability, T/C [18] was 86.1%. The viability, T/C [19] was 96.8%, the viability, T/C [20] was 92.9% and the viability, T/C [21] was 87.1%. For the same compound, the viability, T/C [22] was 96.1%, the viability, T/C [23] was 89% and the viability, T/C [24] was 82.9%. The viability, T/C [25] was 112%, the viability, T/C [26] was 88.9% and the viability, T/C [27] was 87.1%. It also gave a viability, T/C [28] of 81.4%, a viability, T/C [29] of 93.1% and a viability, T/C [30] of 78.6%. For the same compound, the viability, T/C [31] was 106%, the viability, T/C [32] was 89.1% and the viability, T/C [33] was 81.6%. For the same compound, the viability, T/C [34] was 83.6%, the viability, T/C [35] was 88.3% and the viability, T/C [36] was 75.9%.
